For this test, the system named is CEM cells HIV-1 protection, formazan growth assay. As to the kind of experiment: NCI AIDS Antiviral Assay. The note with it: for pIC50: measured here: growth of uninfected CEM cells. The essentials: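 Human CEM cells, uninfected and HIV-1-infected, received five drug concentrations, and growth was read by soluble formazan assay. Compounds giving at least 50% protection were retested; reproducible 100% protection defined confirmed active.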

Molecules are shown by their SMILES. pEC50, pIC50: −log10 of the molar value. Activity calls are given as the source filed them.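 The calls were made as follows: active = compounds giving half or more protection of infected cells from virus-caused growth loss, again on retest; inactive = the rest.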

EC50, IC50 and outcome data for 29 compounds are collected here from PubChem BioAssay AID179 (DTP/NCI, 2004).

Usually pEC50 stands for the EC50 on a negative log10 scale, so that one unit is a factor of ten. For orientation: pIC50 means −log10 of the IC50, conventionally taken in molar units. Low readings indicate a high IC50, high ones a low IC50. Regarding `NC1=NS(=O)(=O)Nc2nonc21`, the pEC50 is less than 2.88 and the pIC50 is less than 2.88.

For the compound `CC1CC2C3CC(F)C4=CC(=O)C=CC4(C)C3(F)C(O)CC2(C)C1(O)C(=O)COC(=O)C(C)(C)C` (stereo not given), the result was inactive.

As for `OCCC1(O)CCC(O)CC1` (stereo not given), the result was inactive.

As to `Cc1ccc(S(=O)OCc2c(C)c(C)c(COS(=O)c3ccc(C)cc3)c(C)c2C)cc1` (stereo not given), the outcome was inactive.

On to `Cc1ccc(O)c(Cc2cc(C)cc(Cc3cc(C)ccc3O)c2O)c1`, for which the pEC50 was less than 3.99 and the pIC50 was 4.70.

Take `COC(=O)c1cc(C)n(NC(=O)OC(C)(C)C)c1C`: the pEC50 was less than 3.60 and the pIC50 is less than 3.60.

With `CC1(C)CNC[C@@]2(C)OCCN(C(=O)OC(C)(C)C)CCO[C@]3(C)CNCC(C)(C)NC(=O)[C@@](C)(CNCC(C)(C)NC3=O)OCCN(C(=O)OC(C)(C)C)CCO[C@](C)(CNCC(C)(C)NC2=O)C(=O)N1`, the result was inactive.

As to `NC(Cc1ccccc1)C(=O)NC(Cc1ccccc1)NC(=O)C(Cc1c[nH]c2ccccc12)C(=O)O` (stereo not given), the result was inactive.

With `O=C(Cc1ccccc1)NN1C(=O)/C(=C\c2ccc([N+](=O)[O-])cc2)SC1=Nc1ccccc1`, the pEC50 is less than 4.25 and the negative-log IC50 (pIC50) is less than 4.25.

On to `CCCCCc1nnc2n1N=C(c1ccc(Cl)cc1)CS2`, for which the pEC50 is less than 3.70 and the negative logarithm of the IC50 (pIC50) is less than 3.70.

Consider `COc1cccc(C2SCc3nc4ccccc4n32)c1` (stereo not given), for which the outcome was inactive.

Regarding `CCOC(=O)Cc1nc2nn(Cc3ccccc3)cc2c(=O)[nH]1`, the pEC50 is less than 3.70 and the negative logarithm of the IC50 (pIC50) is less than 3.70.

As for `CCC1OC2C(CC=C(C)C)=C3OC(C)(O)C(C)(CC)C(O)C3=C3OC(=O)C=C1C32` (stereo not given), the pEC50 was less than 3.70 and the negative-log IC50 (pIC50) is 4.51.

Regarding `NC(=O)CS(=O)(=O)NC(N)=O`, the pEC50 was less than 3.70 and the negative logarithm of the IC50 (pIC50) is less than 3.70.

Take `CCCCn1cc(C(=O)O)c(=O)c2c3sccc3ccc21`: the pEC50 was less than 3.70 and the pIC50 was 4.65.

As for `O=Nc1c(-c2ccccc2)nc2cnccn12`, the pEC50 is less than 3.70 and the negative logarithm of the IC50 (pIC50) is 5.23.

Take `Cc1ccc(S(=O)c2ccccc2[N+](=O)[O-])cc1` (stereo not given): the pEC50 was less than 4.45 and the pIC50 was 4.55.

As to `O=C(NC1CCCCC1)NS(=O)(=O)c1ccc2c(c1)CCC2`, the pEC50 is less than 3.70 and the negative-log IC50 (pIC50) is less than 3.70.

Turning to `O=C1OC(CC(=O)c2ccc(Cl)c(Cl)c2)C(Cl)=C1Cl` (stereo not given), the pEC50 was less than 4.12 and the pIC50 was less than 4.12.

As for `CN(C(=O)C12C3C4C1C1C2C3C41C#N)C(C)(C)C` (stereo not given), the pEC50 was less than 4.38 and the pIC50 is less than 4.38.

As to `N#CC1=C2SCCN2C(=O)C(C#N)C12CCCCC2` (stereo not given), the pEC50 was less than 3.70 and the pIC50 is less than 3.70.

Regarding `Oc1ccc2ccccc2c1C1=NNC(c2ccc(Cl)cc2)C1` (stereo not given), the pEC50 was less than 3.70 and the negative-log IC50 (pIC50) is 4.39.

Regarding `c1ccc2sc(-c3c4ccccc4cc4c3ccc3ccccc34)cc2c1`, the pEC50 was less than 3.70 and the pIC50 is less than 3.70.

Regarding `c1ccc2c(C(c3c[nH]c4ccccc34)c3c[nH]c4ccccc34)c[nH]c2c1`, the pEC50 was 7.20 and the pIC50 is 4.72.

Turning to `OCCCCCCOc1ccc(-c2cc(-c3ccccn3)nc(-c3ccccn3)c2)cc1`, the pEC50 is less than 4.91 and the negative logarithm of the IC50 (pIC50) was 5.72.

Consider `CN(C)CCCNC(=O)CCNC(=O)c1cc(NC(=O)c2cc(NC(=O)c3cc(NC(=O)c4nccn4C)cn3C)cn2C)cn1C`, for which the pEC50 was less than 3.70 and the negative logarithm of the IC50 (pIC50) was 4.77.

As for `CC(=O)OC[C@]12[C@H](OC(C)=O)[C@H](OC(C)=O)[C@@H]3C(OC(C)=O)[C@@]14OC3(C)COC(=O)c1cccnc1CCC(C)C(=O)OC([C@H](O)[C@@H]2OC(=O)c1ccccc1)[C@]4(C)O` (stereo not given in full), the result was inactive.

In the case of `O/N=C1/CCCC/C1=C\c1ccc(Cl)c(Cl)c1`, the outcome was inactive.

As to `C=CC[C@]12CC(OC)C(OC)CC1(OC)O[C@@H](c1cc(OC)c(OC)c(OC)c1)[C@H]2C` (stereo not given in full), the pEC50 was less than 3.70 and the pIC50 was 3.81.
